# Results reported in patent US6011032A, “Heterocyclic compounds for treating myocardial ischemia” (Pierre Fabre Medicament, priority 1995, dated 2000).
# Counter-ions that a name gives are not always drawn.
# Key:
# anaesthetized rabbits = test: Reinfusion ischemia in anaesthetized rabbits (iv); assay type: in vivo, rabbit; conditions: 0.16 mg/kg iv
# Source text: (§1) The compounds of the present invention of formula I and the therapeutically acceptable salts thereof have advantageous pharmacological properties. These derivatives are active on cardiomyocytes by inhibiting the diastolic contraction induced by veratrine in isolated rat left atrium. These compounds are also active in vivo during reinfusion ischemia in anaesthetized rabbits: they inhibit the electrical disturbances in the ECG caused by the reinfusion ischemia without any appreciable hemodynamic effect and are not cardiac depressors. Such compounds are useful for preventive or curative purposes in the treatment of coronaropathies and cardiac and cerebral ischemia in all their forms and in the treatment of atherosclerosis.
# Compounds of the present invention are also active via the venous route in the test of reinfusion ischemia in anaesthetized rabbits according to the method of Verscheure et al. (Fundam Clin Pharmacol (1993) 7, 385). The results for the compounds of Examples 1, 2, 11 and 15 are given in the table below by way of non-limiting example: […]
# isolated rat left atrium = test: Inhibition of contraction of isolated rat left atrium by veratrine; assay type: cell-based
# Source text: as §1
# Inhibition of contraction of isolated rat left atrium by veratrine was carried out according to the technique of Le Grand et al. (Naunyn--Schmiedeberg's Arch Phazmacol (1993) 348 pp. 184-190). The results are given in the table below, in which the IC50 values are expressed in micromoles for certain compounds, by way of non-limiting examples: […]
Structure (SMILES),% arterial pressure variation (anaesthetized rabbits),% heart rate variation (anaesthetized rabbits),% inhibition ST segment (anaesthetized rabbits) [%],Number of arrythmias under reinfusion (anaesthetized rabbits),IC50 (isolated rat left atrium) [nM]
"CC(C)NCC(O)COc1ccc(CC(N)=O)cc1 (centres unmarked) [Atenolol, reference compound]",-9%,-13%,64,4/6,
"COc1ccc([C@@H]2Sc3ccccc3N(CCN(C)C)C(=O)[C@@H]2OC(C)=O)cc1 [Diltiazem, reference compound]",-27%,-5%,61,0/6,
"CN(C1=Nc2ccccc2CS1)C1CCN(CCCCOc2ccc(F)cc2)CC1.O=C(O)/C=C\C(=O)O [Example 1, N-Methyl-N-[1-[4-(4-fluorophenoxy)butyl]piperid-4-yl]-4H-3,1-benzothiazin-2-amine hydrogen maleate]",+6%,+3%,76,3/5,150
"CN(C1=Nc2ccccc2CS1)C1CCN(CCCOc2ccc(F)cc2)CC1.O=C(O)/C=C\C(=O)O [Example 2, N-Methyl-N-[1-[3-(4-fluorophenoxy)propyl]piperid-4-yl]-4H-3,1-benzothiazin-2-amine hydrogen maleate]",+4%,-3%,76,1/5,
"CN(C1=Nc2ccccc2CS1)C1CCN(CCCCOc2ccc(F)c(F)c2)CC1 [Example 11, N-Methyl-N-[1-[4-(3,4-difluorophenoxy)butyl]piperid-4-yl]-4H-3,1-benzothiazin-2-armine hydrogen maleate]",+3%,-1%,71,1/5,
"CN(C1=Nc2ccccc2CS1)C1CCN(CC(O)COc2ccc(F)cc2)CC1.Cl.Cl (centres unmarked) [Example 15, N-Methyl-N-[1-[2-hydroxy-3-(4-fluorophenoxy)propyl]-piperid-4-yl]-4H-3,1-benzothiazin-2-amine dihydrochloride]",+5%,0%,90,1/5,320
"CN(c1nc2ccccc2s1)C1CCN(CCCCOc2ccc(F)cc2)CC1 [R 56865, N-(1-(4-(4-fluorophenoxy)butyl)piperid-4-yl)-N-methyl-2-benzothiazolamine, reference compound]",,,,,250
"CN(c1nc2ccccc2s1)C1CCN(CC(O)COc2ccc(F)cc2)CC1 (centres unmarked) [Sabeluzole, N-(1-(2-hydroxy-3-(4-fluorophenoxy)propyl)piperid-4-yl)-N-methyl-2-benzothiazolamine, reference compound]",2%,-5%,84,1/5,5100
